Assays:
[1] = molecular target: T1, human JAK1 (a.a. 837-1142) (Homo sapiens, UniProt P23458); experiment: In vitro JAK kinase assay (HTRF, phosphorylation of a biotinylated peptide), JAK1; format: biochemical; conditions: Table D1; read-out: JAK1 IC50
T1 construct: human JAK1 (a.a. 837-1142); His tag (N); made in house; host or cells: insect cells (baculovirus)
Procedure: (§1) The catalytic activity of JAK1, JAK2 or JAK3 was assayed by measuring the phosphorylation of a biotinylated peptide. The phosphorylated peptide was detected by homogenous time resolved fluorescence (HTRF). […] The ATP concentration in the reactions was 90 μM for JAK1, 30 μM for JAK2 and 3 μM for JAK3. Reactions were carried out at room temperature for 1 hr and then stopped with 20 μL 45 mM EDTA, 300 nM SA-APC, 6 nM Eu-Py20 in assay buffer (Perkin Elmer, Boston, Mass.). Binding to the Europium labeled antibody took place for 40 minutes and HTRF signal was measured on a Fusion plate reader (Perkin Elmer, Boston, Mass.).
(§2) The catalytic activity of JAK1, JAK2 or JAK3 was assayed by measuring the phosphorylation of a biotinylated peptide. The phosphorylated peptide was detected by homogenous time resolved fluorescence (HTRF). […] Reactions were carried out at room temperature for 1 hr and then stopped with 20 μL 45 mM EDTA, 300 nM SA-APC, 6 nM Eu-Py20 in assay buffer (Perkin Elmer, Boston, Mass.). Binding to the Europium labeled antibody took place for 40 minutes and HTRF signal was measured on a Fusion plate reader (Perkin Elmer, Boston, Mass.).

[2] = molecular target: T2, human JAK2 (a.a. 828-1132) (Homo sapiens, UniProt O60674); experiment: In vitro JAK kinase assay (HTRF, phosphorylation of a biotinylated peptide), JAK2; format: biochemical; conditions: Table D1
T2 construct: JAK2 (a.a. 828-1132); His tag (N); made in house; host or cells: insect cells (baculovirus)
Procedure: as §1, §2

T2 sequence (O60674 828-1132): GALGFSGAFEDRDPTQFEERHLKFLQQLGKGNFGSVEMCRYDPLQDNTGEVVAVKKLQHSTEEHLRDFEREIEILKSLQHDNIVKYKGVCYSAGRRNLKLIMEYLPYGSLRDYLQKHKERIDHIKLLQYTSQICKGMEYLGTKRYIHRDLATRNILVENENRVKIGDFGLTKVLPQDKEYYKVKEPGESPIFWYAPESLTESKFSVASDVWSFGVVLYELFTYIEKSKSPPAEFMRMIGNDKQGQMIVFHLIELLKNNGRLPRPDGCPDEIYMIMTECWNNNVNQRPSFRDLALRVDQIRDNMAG
T1 sequence (P23458 849-1154): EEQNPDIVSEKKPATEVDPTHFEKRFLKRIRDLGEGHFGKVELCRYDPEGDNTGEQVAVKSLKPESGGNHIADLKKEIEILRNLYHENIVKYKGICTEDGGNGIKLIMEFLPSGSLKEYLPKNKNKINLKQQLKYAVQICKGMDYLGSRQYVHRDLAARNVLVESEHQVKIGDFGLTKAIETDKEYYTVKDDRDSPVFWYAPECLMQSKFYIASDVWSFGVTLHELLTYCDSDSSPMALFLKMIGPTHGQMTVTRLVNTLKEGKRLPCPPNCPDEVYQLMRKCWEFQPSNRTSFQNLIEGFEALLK

Compound	IC50 [1] [nM]	IC50 [2] [nM]
Cc1oncc1C(=O)N1CC[C@H](CC(=O)Nc2ccc3cc2CCc2cncc(c2)Nc2ncc(Cl)c(n2)N3)C1 [Example D108, N-[6-Chloro-2,4,8,18,22-pentaazatetracyclo[14.3.1.1(3,7).1(9,13)]docosa-1(20),3(22),4,6,9(21),10,12,16,18-nonaen-12-yl]-2-{(3R)-1-[(5-methylisoxazol-4-yl)carbonyl]pyrrolidin-3-yl}acetamide bis(trifluoroacetate)]	62	246
O=C(C[C@H]1CCN(C(=O)Nc2ccc(F)cc2)C1)Nc1ccc2cc1CCc1cncc(c1)Nc1ncc(Cl)c(n1)N2 [Example D102, (3R)-3-(2-{[6-Chloro-2,4,8,18,22-pentaazatetracyclo[14.3.1.1(3,7).1(9,13)]docosa-1(20),3(22),4,6,9(21),10,12,16,18-nonaen-12-yl]amino}-2-oxoethyl)-N-(4-fluorophenyl)pyrrolidine-1-carboxamide bis(trifluoroacetate)]	2.5	78
O=C(C[C@H]1CCN(C(=O)c2nccs2)C1)Nc1ccc2cc1CCc1cncc(c1)Nc1ncc(Cl)c(n1)N2 [Example D110, N-[6-Chloro-2,4,8,18,22-pentaazatetracyclo[14.3.1.1(3,7).1(9,13)]docosa-1(20),3(22),4,6,9(21),10,12,16,18-nonaen-12-yl]-2-[(3R)-1-(1,3-thiazol-2-ylcarbonyl)pyrrolidin-3-yl]acetamide bis(trifluoroacetate)]	22	222
N#Cc1cccc(NC(=O)N2CC[C@@H](CC(=O)Nc3ccc4cc3CCc3cncc(c3)Nc3ncc(Cl)c(n3)N4)C2)c1 [Example D115, (3S)-3-(2-{[6-Chloro-2,4,8,18,22-pentaazatetracyclo[14.3.1.1(3,7).1(9,13)]docosa-1(20),3(22),4,6,9(21),10,12,16,18-nonaen-12-yl]amino}-2-oxoethyl)-N-(3-cyanophenyl)pyrrolidine-1-carboxamide bis(trifluoroacetate)]	19	163
O=C(C[C@H]1CCN(C(=O)Nc2ccccc2F)C1)Nc1ccc2cc1CCc1cncc(c1)Nc1ncc(Cl)c(n1)N2 [Example D104, (3R)-3-(2-{[6-Chloro-2,4,8,18,22-pentaazatetracyclo[14.3.1.1(3,7).1(9,13)]docosa-1(20),3(22),4,6,9(21),10,12,16,18-nonaen-12-yl]amino}-2-oxoethyl)-N-(2-fluorophenyl)pyrrolidine-1-carboxamide bis(trifluoroacetate)]	8.5	255
O=C(C[C@@H]1CCN(C(=O)Nc2ccccc2)C1)Nc1ccc2cc1CCc1cncc(c1)Nc1ncc(Cl)c(n1)N2 [Example D113, (3S)-3-(2-{[6-Chloro-2,4,8,18,22-pentaazatetracyclo[14.3.1.1(3,7).1(9,13)]docosa-1(20),3(22),4,6,9(21),10,12,16,18-nonaen-12-yl]amino}-2-oxoethyl)-N-phenylpyrrolidine-1-carboxamide bis(trifluoroacetate)]	11	161
O=C(C[C@H]1CCN(C(=O)Nc2cccc(F)c2)C1)Nc1ccc2cc1CCc1cncc(c1)Nc1ncc(Cl)c(n1)N2 [Example D103, (3R)-3-(2-{[6-Chloro-2,4,8,18,22-pentaazatetracyclo[14.3.1.1(3,7).1(9,13)]docosa-1(20),3(22),4,6,9(21),10,12,16,18-nonaen-12-yl]amino}-2-oxoethyl)-N-(3-fluorophenyl)pyrrolidine-1-carboxamide bis(trifluoroacetate)]	6.7	113
Cn1ccc(C(=O)N2CC[C@H](CC(=O)Nc3ccc4cc3CCc3cncc(c3)Nc3ncc(Cl)c(n3)N4)C2)n1 [Example D106, N-[6-Chloro-2,4,8,18,22-pentaazatetracyclo[14.3.1.1(3,7).1(9,13)]docosa-1(20),3(22),4,6,9(21),10,12,16,18-nonaen-12-yl]-2-{(3R)-1-[(1-methyl-1H-pyrazol-3-yl)carbonyl]pyrrolidin-3-yl}acetamide bis(trifluoroacetate)]	32	256

The next lines start with the values.

IC50 [1] [nM]	IC50 [2] [nM]	Compound
50		Cc1oncc1C(=O)N1CC[C@@H](CC(=O)Nc2ccc3cc2CCc2cncc(c2)Nc2ncc(Cl)c(n2)N3)C1 [Example D123, N-[6-Chloro-2,4,8,18,22-pentaazatetracyclo[14.3.1.1(3,7).1(9,13)]docosa-1(20),3(22),4,6,9(21),10,12,16,18-nonaen-12-yl]-2-{(3S)-1-[(5-methylisoxazol-4-yl)carbonyl]pyrrolidin-3-yl}acetamide bis(trifluoroacetate)]
44	357	O=C(C[C@@H]1CCN(C(=O)c2cc[nH]n2)C1)Nc1ccc2cc1CCc1cncc(c1)Nc1ncc(Cl)c(n1)N2 [Example D134, N-[6-Chloro-2,4,8,18,22-pentaazatetracyclo[14.3.1.1(3,7).1(9,13)]docosa-1(20),3(22),4,6,9(21),10,12,16,18-nonaen-12-yl]-2-[(3S)-1-(1H-pyrazol-3-ylcarbonyl)pyrrolidin-3-yl]acetamide bis(trifluoroacetate)]
23		O=C(C[C@H]1CCN(C(=O)c2cc[nH]n2)C1)Nc1ccc2cc1CCc1cncc(c1)Nc1ncc(Cl)c(n1)N2 [Example D130, N-[6-Chloro-2,4,8,18,22-pentaazatetracyclo[14.3.1.1(3,7).1(9,13)]docosa-1(20),3(22),4,6,9(21),10,12,16,18-nonaen-12-yl]-2-[(3R)-1-(1H-pyrazol-3-ylcarbonyl)pyrrolidin-3-yl]acetamide bis(trifluoroacetate)]
43	500	Cn1cc(C(=O)N2CC[C@@H](CC(=O)Nc3ccc4cc3CCc3cncc(c3)Nc3ncc(Cl)c(n3)N4)C2)cn1 [Example D122, N-[6-Chloro-2,4,8,18,22-pentaazatetracyclo[14.3.1.1(3,7).1(9,13)]docosa-1(20),3(22),4,6,9(21),10,12,16,18-nonaen-12-yl]-2-{(3S)-1-[(1-methyl-1H-pyrazol-4-yl)carbonyl]pyrrolidin-3-yl}acetamide bis(trifluoroacetate)]
20	397	O=C(C[C@@H]1CCN(C(=O)c2ccno2)C1)Nc1ccc2cc1CCc1cncc(c1)Nc1ncc(Cl)c(n1)N2 [Example D120, N-[6-Chloro-2,4,8,18,22-pentaazatetracyclo[14.3.1.1(3,7).1(9,13)]docosa-1(20),3(22),4,6,9(21),10,12,16,18-nonaen-12-yl]-2-[(3S)-1-(isoxazol-5-ylcarbonyl)pyrrolidin-3-yl]acetamide bis(trifluoroacetate)]
98		Cn1cncc1C(=O)N1CC[C@@H](CC(=O)Nc2ccc3cc2CCc2cncc(c2)Nc2ncc(Cl)c(n2)N3)C1 [Example D126, N-[6-Chloro-2,4,8,18,22-pentaazatetracyclo[14.3.1.1(3,7).1(9,13)]docosa-1(20),3(22),4,6,9(21),10,12,16,18-nonaen-12-yl]-2-{(3S)-1-[(1-methyl-1H-imidazol-5-yl)carbonyl]pyrrolidin-3-yl}acetamide tris(trifluoroacetate)]
12	199	CS(=O)(=O)N1CC[C@@H](CC(=O)Nc2ccc3cc2CCc2cncc(c2)Nc2ncc(Cl)c(n2)N3)C1 [Example D127, N-[6-Chloro-2,4,8,18,22-pentaazatetracyclo[14.3.1.1(3,7).1(9,13)]docosa-1(20),3(22),4,6,9(21),10,12,16,18-nonaen-12-yl]-2-[(3S)-1-(methylsulfonyl)pyrrolidin-3-yl]acetamide bis(trifluoroacetate)]
11		O=C(C[C@@H]1CCCN(c2nc3cccnc3o2)C1)Nc1ccc2cc1CCc1cncc(c1)Nc1ncc(Cl)c(n1)N2 [Example D213, N-[6-Chloro-2,4,8,18,22-pentaazatetracyclo[14.3.1.1(3,7).1(9,13)]docosa-1(20),3(22),4,6,9(21),10,12,16,18-nonaen-12-yl]-2-[(3S)-1-[1,3]oxazolo[5,4-b]pyridin-2-ylpiperidin-3-yl]acetamide tris(trifluoroacetate)]
34		O=C(C[C@@H]1CCN(C(=O)c2nccs2)C1)Nc1ccc2cc1CCc1cncc(c1)Nc1ncc(Cl)c(n1)N2 [Example D125, N-[6-Chloro-2,4,8,18,22-pentaazatetracyclo[14.3.1.1(3,7).1(9,13)]docosa-1(20),3(22),4,6,9(21),10,12,16,18-nonaen-12-yl]-2-[(3S)-1-(1,3-thiazol-2-ylcarbonyl)pyrrolidin-3-yl]acetamide bis(trifluoroacetate)]
16		Cc1cc(C(=O)N2CC[C@@H](CC(=O)Nc3ccc4cc3CCc3cncc(c3)Nc3ncc(Cl)c(n3)N4)C2)no1 [Example D124, N-[6-Chloro-2,4,8,18,22-pentaazatetracyclo[14.3.1.1(3,7).1(9,13)]docosa-1(20),3(22),4,6,9(21),10,12,16,18-nonaen-12-yl]-2-{(3S)-1-[(5-methylisoxazol-3-yl)carbonyl]pyrrolidin-3-yl}acetamide bis(trifluoroacetate)]
